In patent US20250221410A1, “SUBSTITUTED 2-C-AZINES AND SALTS THEREOF, AND USE THEREOF AS HERBICIDAL ACTIVE SUBSTANCES” (BAYER AKTIENGESELLSCHAFT, priority 2022, published 2025):

How the values were obtained:
Assay type in all cases: in vivo
[1] = system: DIGSA: Digitaria sanguinalis; experiment: Pre-emergence herbicide efficacy at 1280 g/ha, DIGSA; conditions: visual scoring after about 3 weeks vs untreated controls
Summary of the method: (§1)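 Efficacy is a visual percentage rating against untreated controls, taken about 3 weeks after soil-surface application to freshly sown, soil-covered seeds in sandy loam.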

SETVI: Setaria viridis [2] = experiment: Pre-emergence herbicide efficacy at 80 g/ha, SETVI; conditions: scored visually after about 3 weeks
Excerpt: (§2) Seeds of monocotyledonous and dicotyledonous weed plants and crop plants were placed in plastic or organic planting pots and covered with soil. The compounds of the invention, formulated in the form of wettable powders (WP) or as emulsion concentrates (EC), were then applied to the surface of the covering soil as aqueous suspension or emulsion with addition of 0.5% additive at a water application rate equivalent to 600 l/ha. After the treatment, the pots were placed in a greenhouse and kept under good growth conditions for the test plants. After about 3 weeks, the efficacy of the preparations was scored visually in comparison with untreated controls as percentages. For example, 100% activity=the plants have died, 0% activity=like control plants. Tables D1 to D12 below show the effects of selected compounds of the general formula (I) according to Table 1 on various harmful plants and an application rate corresponding to 80 g/ha, which were obtained by the experimental procedure mentioned above.

[3] = system: AMARE: Amaranthus retroflexus; experiment: Post-emergence herbicidal efficacy at 1280 g/ha, AMARE; conditions: rated visually after about 3 weeks vs untreated controls, 100% = plants have died, 0% = like control plants
Summary of the method: (§3)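 Weeds grown in sandy loam in the greenhouse were sprayed at the one-leaf stage, 2 to 3 weeks after sowing, with WP or EC formulations in water plus 0.5% additive at 600 L/ha. Damage was scored visually about 3 weeks later against untreated controls (0% = like control, 100% = plants dead).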

[4] = system: DIGSA: Digitaria sanguinalis; experiment: Pre-emergence herbicide efficacy at 80 g/ha, DIGSA; conditions: scored visually after about 3 weeks
Excerpt: as §2

POAAN: Poa annua [5] = experiment: Pre-emergence herbicide efficacy at 1280 g/ha, POAAN; conditions: visual scoring after about 3 weeks vs untreated controls
Summary of the method: as §1

STEME: Stellaria media [6] = experiment: Post-emergence herbicidal efficacy at 1280 g/ha, STEME; conditions: visual rating about 3 weeks after treatment vs untreated controls
Summary of the method: as §3

SETVI: Setaria viridis [7] = experiment: Pre-emergence herbicide efficacy at 1280 g/ha, SETVI; conditions: visual scoring vs untreated controls
Summary of the method: as §1

STEME: Stellaria media [8] = experiment: Pre-emergence herbicide efficacy at 1280 g/ha, STEME; conditions: visual scoring vs untreated controls
Summary of the method: as §1

VIOTR: Viola tricolor [9] = experiment: Pre-emergence herbicide efficacy at 80 g/ha, VIOTR; conditions: scored visually after about 3 weeks
Excerpt: as §2

VERPE: Veronica persica [10] = experiment: Post-emergence herbicidal efficacy at 80 g/ha, VERPE; conditions: visual rating about 3 weeks after treatment vs untreated controls
Summary of the method: (§4)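 Sow in sandy loam and grow in the greenhouse for 2 to 3 weeks. Spray the green parts at the one-leaf stage with a WP or EC suspension or emulsion plus 0.5% additive at 600 l/ha water. Keep plants about 3 weeks, then score damage visually against controls.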

KCHSC: Kochia scoparia [11] = experiment: Pre-emergence herbicide efficacy at 1280 g/ha, KCHSC; conditions: visual scoring after about 3 weeks vs untreated controls
Summary of the method: as §1

LOLRI: Lolium rigidum = experiment: Pre-emergence herbicide efficacy at 1280 g/ha, LOLRI; conditions: visual scoring after about 3 weeks vs untreated controls
Excerpt: (§5) Seeds of mono- and dicotyledonous weed plants were placed in plastic pots in sandy loam soil (doubly sown with one species each of mono- or dicotyledonous weed plants per pot) and covered with soil. The compounds of the invention, formulated in the form of wettable powders (WP) or as emulsion concentrates (EC), were then applied to the surface of the covering soil as aqueous suspension or emulsion with addition of 0.5% additive at a water application rate of 600 litres per hectare (converted). After the treatment, the pots were placed in a greenhouse and kept under good growth conditions for the test plants. After about 3 weeks, the efficacy of the preparations was scored visually in comparison with untreated controls as percentages. For example, 100% activity=the plants have died, 0% activity=like control plants. Tables C1 to C12 below show the effects of selected compounds of the general formula (I) according to Table 1 on various harmful plants and at an application rate corresponding to 1280 g/ha, which were obtained by the trial procedure specified above.

KCHSC: Kochia scoparia [12] = experiment: Post-emergence herbicidal efficacy at 1280 g/ha, KCHSC; conditions: visual rating about 3 weeks after treatment vs untreated controls
Summary of the method: as §3

[13] = system: MATIN: Matricaria inodora; experiment: Pre-emergence herbicide efficacy at 80 g/ha, MATIN; conditions: scored visually after about 3 weeks
Excerpt: as §2

[14] = system: ABUTH: Abutilon theophrasti; experiment: Post-emergence herbicidal efficacy at 1280 g/ha, ABUTH; conditions: rated visually after about 3 weeks vs untreated controls, 100% = plants have died, 0% = like control plants
Summary of the method: as §3

[15] = system: ECHCG: Echinochloa crus-galli; experiment: Pre-emergence herbicide efficacy at 1280 g/ha, ECHCG; conditions: visual scoring after about 3 weeks vs untreated controls
Summary of the method: as §1

VIOTR: Viola tricolor [16] = experiment: Post-emergence herbicidal efficacy at 80 g/ha, VIOTR; conditions: visual rating about 3 weeks after treatment vs untreated controls
Protocol: Seeds of monocotyledonous and dicotyledonous weeds and crop plants were placed in sandy loam in plastic or organic planting pots, covered with soil and cultivated in a greenhouse under controlled growth conditions. 2 to 3 weeks after sowing, the test plants were treated at the one-leaf stage. The compounds of the invention, formulated in the form of wettable powders (WP) or as emulsion concentrates (EC), were then sprayed onto the green parts of the plants as aqueous suspension or emulsion with addition of 0.5% additive at a water application rate of 600 l/ha (converted). After the test plants had been kept in the greenhouse under optimum growth conditions for about 3 weeks, the activity of the preparations was rated visually in comparison to untreated controls. For example, 100% activity=the plants have died, 0% activity=like control plants. Tables B1 to B10 below show the effects of selected compounds of the general formula (I) according to Table 1 on various harmful plants and an application rate corresponding to 80 g/ha, which were obtained by the experimental procedure mentioned above.

[17] = system: ABUTH: Abutilon theophrasti; experiment: Pre-emergence herbicide efficacy at 80 g/ha, ABUTH; conditions: scored visually after about 3 weeks
Excerpt: as §2

SETVI: Setaria viridis [18] = experiment: Post-emergence herbicidal efficacy at 1280 g/ha, SETVI; conditions: visual rating about 3 weeks after treatment vs untreated controls
Summary of the method: as §3

[19] = system: ABUTH: Abutilon theophrasti; experiment: Pre-emergence herbicide efficacy at 1280 g/ha, ABUTH; conditions: visual scoring after about 3 weeks vs untreated controls
Summary of the method: as §1

[20] = system: MATIN: Matricaria inodora; experiment: Post-emergence herbicidal efficacy at 1280 g/ha, MATIN; conditions: visual rating about 3 weeks after treatment vs untreated controls
Protocol: Seeds of mono- and dicotyledonous weed plants were placed in plastic pots in sandy loam soil (doubly sown with in each case one species of mono- or dicotyledonous weed plants per pot), covered with soil and cultivated in a greenhouse under controlled growth conditions. 2 to 3 weeks after sowing, the test plants were treated at the one-leaf stage. The compounds of the invention, formulated in the form of wettable powders (WP) or as emulsion concentrates (EC), were applied to the green parts of the plants as aqueous suspension or emulsion with addition of 0.5% additive at a water application rate equivalent to 600 litres per hectare. After the test plants had been kept in the greenhouse under optimum growth conditions for about 3 weeks, the activity of the preparations was rated visually in comparison to untreated controls. For example, 100% activity=the plants have died, 0% activity=like control plants. Tables A1 to A12 below show the effects of selected compounds of the general formula (I) according to Table 1 on various harmful plants and at an application rate corresponding to 1280 g/ha, which were obtained by the trial procedure specified above.

KCHSC: Kochia scoparia [21] = experiment: Pre-emergence herbicide efficacy at 80 g/ha, KCHSC; conditions: scored visually after about 3 weeks
Excerpt: as §2

[22] = system: AMARE: Amaranthus retroflexus; experiment: Pre-emergence herbicide efficacy at 80 g/ha, AMARE; conditions: scored visually after about 3 weeks
Summary of the method: (§6)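 Applied to the soil surface directly after sowing, before emergence, as an aqueous WP or EC preparation containing 0.5% additive. Percent efficacy was rated by eye about 3 weeks later in the greenhouse.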

POAAN: Poa annua [23] = experiment: Post-emergence herbicidal efficacy at 1280 g/ha, POAAN; conditions: visual rating about 3 weeks after treatment vs untreated controls
Summary of the method: as §3

VERPE: Veronica persica [24] = experiment: Post-emergence herbicidal efficacy at 1280 g/ha, VERPE; conditions: visual rating about 3 weeks after treatment vs untreated controls
Summary of the method: as §3

VERPE: Veronica persica [25] = experiment: Pre-emergence herbicide efficacy at 1280 g/ha, VERPE; conditions: visual scoring vs untreated controls
Summary of the method: as §1

[26] = system: ALOMY: Alopecurus myosuroides; experiment: Pre-emergence herbicide efficacy at 1280 g/ha, ALOMY; conditions: visual scoring after about 3 weeks vs untreated controls
Excerpt: as §5

[27] = system: ECHCG: Echinochloa crus-galli; experiment: Post-emergence herbicidal efficacy at 1280 g/ha, ECHCG; conditions: rated visually after about 3 weeks vs untreated controls, 100% = plants have died, 0% = like control plants
Summary of the method: as §3

[28] = system: AMARE: Amaranthus retroflexus; experiment: Pre-emergence herbicide efficacy at 1280 g/ha, AMARE; conditions: visual scoring after about 3 weeks vs untreated controls
Summary of the method: as §1

[29] = system: MATIN: Matricaria inodora; experiment: Pre-emergence herbicide efficacy at 1280 g/ha, MATIN; conditions: visual scoring after about 3 weeks vs untreated controls
Summary of the method: as §1

VERPE: Veronica persica [30] = experiment: Pre-emergence herbicide efficacy at 80 g/ha, VERPE; conditions: scored visually after about 3 weeks
Summary of the method: as §6

POLCO = experiment: Pre-emergence herbicide efficacy at 80 g/ha, POLCO; conditions: Polygonum convolvulus, scored visually after about 3 weeks
Excerpt: as §2

[31] = system: AMARE: Amaranthus retroflexus; experiment: Post-emergence herbicidal efficacy at 80 g/ha, AMARE; conditions: visual rating about 3 weeks after treatment vs untreated controls
Summary of the method: as §4

[32] = system: DIGSA: Digitaria sanguinalis; experiment: Post-emergence herbicidal efficacy at 1280 g/ha, DIGSA; conditions: rated visually after about 3 weeks vs untreated controls, 100% = plants have died, 0% = like control plants
Summary of the method: as §3

Cc1cccc(Oc2ncc(F)cn2)c1Cc1ncc(Cl)cn1 [Example 1-65]
100%: Pre-emergence efficacy against DIGSA [1] | Post-emergence efficacy at 1280 g/ha against AMARE in % [3] | Pre-emergence efficacy against POAAN (POAAN: Poa annua [5]) | Post-emergence efficacy against STEME (STEME: Stellaria media [6]) | Pre-emergence efficacy against SETVI in % (SETVI: Setaria viridis [7]) | Pre-emergence efficacy against STEME in % (STEME: Stellaria media [8]) | Pre-emergence efficacy against VIOTR in % (VIOTR: Viola tricolor [9]) | Pre-emergence efficacy against KCHSC (KCHSC: Kochia scoparia [11]) | Pre-emergence efficacy against LOLRI (LOLRI: Lolium rigidum) | Post-emergence efficacy against KCHSC (KCHSC: Kochia scoparia [12]) | Pre-emergence efficacy against MATIN in % [13] | Post-emergence efficacy at 1280 g/ha against ABUTH in % [14] | Pre-emergence efficacy against ECHCG [15] | Post-emergence efficacy against VIOTR (VIOTR: Viola tricolor [16]) | Pre-emergence efficacy against ABUTH [19] | Post-emergence efficacy against MATIN [20] | Pre-emergence efficacy against KCHSC in % (KCHSC: Kochia scoparia [21]) | Pre-emergence efficacy against AMARE in % [22] | Post-emergence efficacy against POAAN (POAAN: Poa annua [23]) | Post-emergence efficacy against VERPE (VERPE: Veronica persica [24]) | Pre-emergence efficacy against VERPE in % (VERPE: Veronica persica [25]) | Pre-emergence efficacy against AMARE [28] | Pre-emergence efficacy against MATIN [29] | Pre-emergence efficacy against VERPE in % (VERPE: Veronica persica [30])
90%: Pre-emergence efficacy against SETVI in % (SETVI: Setaria viridis [2]) | Pre-emergence efficacy against DIGSA in % [4] | Post-emergence efficacy against VERPE (VERPE: Veronica persica [10]) | Pre-emergence efficacy against ABUTH in % [17] | Post-emergence efficacy against SETVI (SETVI: Setaria viridis [18]) | Pre-emergence efficacy against ALOMY [26] | Post-emergence efficacy at 1280 g/ha against ECHCG in % [27]

N#Cc1cccc(Cc2ncc(F)cn2)c1-n1cc(C(F)(F)F)cn1 [Example 1-131]
90%: Pre-emergence efficacy against POAAN (POAAN: Poa annua [5]) | Pre-emergence efficacy against VIOTR in % (VIOTR: Viola tricolor [9]) | Post-emergence efficacy against VIOTR (VIOTR: Viola tricolor [16]) | Post-emergence efficacy at 1280 g/ha against DIGSA in % [32] | Post-emergence efficacy against SETVI (SETVI: Setaria viridis [18]) | Post-emergence efficacy against MATIN [20]
80%: Pre-emergence efficacy against POLCO in % (POLCO)
100%: Pre-emergence efficacy against DIGSA [1] | Post-emergence efficacy at 1280 g/ha against AMARE in % [3] | Post-emergence efficacy against STEME (STEME: Stellaria media [6]) | Pre-emergence efficacy against SETVI in % (SETVI: Setaria viridis [7]) | Post-emergence efficacy against AMARE [31] | Pre-emergence efficacy against STEME in % (STEME: Stellaria media [8]) | Pre-emergence efficacy against KCHSC (KCHSC: Kochia scoparia [11]) | Post-emergence efficacy against KCHSC (KCHSC: Kochia scoparia [12]) | Post-emergence efficacy at 1280 g/ha against ABUTH in % [14] | Pre-emergence efficacy against ECHCG [15] | Pre-emergence efficacy against ABUTH [19] | Pre-emergence efficacy against AMARE in % [22] | Post-emergence efficacy against POAAN (POAAN: Poa annua [23]) | Post-emergence efficacy against VERPE (VERPE: Veronica persica [24]) | Pre-emergence efficacy against VERPE in % (VERPE: Veronica persica [25]) | Post-emergence efficacy at 1280 g/ha against ECHCG in % [27] | Pre-emergence efficacy against AMARE [28] | Pre-emergence efficacy against MATIN [29]
